Target: T1, 5-hydroxytryptamine receptor 1A (Rattus norvegicus, UniProt P19327)
T1 sequence (P19327 whole entry): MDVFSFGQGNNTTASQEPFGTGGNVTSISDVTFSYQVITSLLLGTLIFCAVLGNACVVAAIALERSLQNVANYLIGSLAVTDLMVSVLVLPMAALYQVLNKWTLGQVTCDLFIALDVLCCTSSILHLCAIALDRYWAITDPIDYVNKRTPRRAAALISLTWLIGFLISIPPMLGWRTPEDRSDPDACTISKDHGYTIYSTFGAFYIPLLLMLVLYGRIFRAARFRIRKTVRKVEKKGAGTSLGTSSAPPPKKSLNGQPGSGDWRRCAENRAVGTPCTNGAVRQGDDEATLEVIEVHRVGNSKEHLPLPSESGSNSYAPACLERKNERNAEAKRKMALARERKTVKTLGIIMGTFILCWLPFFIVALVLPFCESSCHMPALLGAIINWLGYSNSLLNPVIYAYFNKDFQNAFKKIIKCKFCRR
Assay: Displacement of [3H]8-OH-DPAT from 5HT1A receptor in rat hippocampal membranes

## CC1CC2(C)CC(=O)C1C1C(=O)N(OCCCN3CCN(c4ccccc4F)CC3)C(=O)C12 (stereo unspecified) [4-{3-[4-(2-Fluorophenyl)piperazin-1-yl]propoxy}-1,11-dimethyl-4-azatricyclo[5.2.2.0(2,6)]undecane-3,5,8-trione]
  Ki: 331 nM
